This is an account of results in paper PMC5007854, “β-Nitrostyrenes as Potential Anti-leishmanial Agents” (Frontiers in Microbiology, 2016).

Each structure is given as a SMILES string. ≈ marks a conversion by molar mass, not a printed value.

Data set [1] has as its system Staphylococcus epidermidis ATCC 14990. Description: Broth microdilution antibacterial susceptibility (MIC/MBC). The data set is classed as cell-based. The note with it: for MIC / MBC: Staphylococcus epidermidis; for MIC: ATCC14990, 24 h, read-out: MIC, Se ATCC 14990; for MBC: ATCC14990, ≥99.9% reduction of original inoculum, read-out: MBC, Se ATCC 14990. In short, it runs like this:
(§1)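 CLSI broth microdilution: Ca/Mg-supplemented Mueller-Hinton for bacteria (~5 × 10^5 CFU/mL, 24 h), MOPS-buffered RPMI 1640 pH 7.0 for fungi (Candida ~2.5 × 10^4, Aspergillus 0.4-5 × 10^4 CFU/mL, 48 h), 35°C, 1% DMSO, 64 to 0.12 μg/mL. MIC read visually; MBC/MFC by plating clear wells.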
(Dilution methods test growth across graded concentrations, often in twofold steps.)

The test system of data set [2] is Staphylococcus aureus ATCC 29213. The data set is described as above. The data set is classed as cell-based. Conditions: for MIC / MBC: Staphylococcus aureus; for MIC: ATCC29213, 24 h, read-out: MIC, Sa ATCC 29213; for MBC: ATCC29213, ≥99.9% reduction of original inoculum, read-out: MBC, Sa ATCC 29213. A digest of the protocol: as §1
In data set [3] the test system is Escherichia coli ATCC 25922. The data set is described as above. The data set is classed as cell-based. The note with it: for MIC / MBC: Escherichia coli; for MIC: ATCC25922, 24 h, read-out: MIC, Ec ATCC 25922; for MBC: ATCC25922, ≥99.9% reduction of original inoculum, read-out: MBC, Ec ATCC 25922. A digest of the protocol: as §1
The subject of data set [4] is Pseudomonas aeruginosa ATCC 27853. The description is as above. The data set is classed as cell-based. The note with it: for MIC / MBC: Pseudomonas aeruginosa; for MIC: ATCC27853, 24 h, read-out: MIC, Pa ATCC 27853; for MBC: ATCC27853, ≥99.9% reduction of original inoculum, read-out: MBC, Pa ATCC 27853. In short, it runs like this: as §1
For data set [5], the system named is L. donovani promastigotes. Description: Anti-leishmanial screening at 100 μM, parasite viability by microscopy. The data set is classed as cell-based, Leishmania donovani. Conditions: for Anti-leishmanial activity, in words (SAR discussion): L. donovani promastigotes. Here is the method:
(§2) L. donovani parasites (MHOM/IN/83/AG83) were maintained in vivo in BALB/c mice. Promastigotes were routinely cultured at 22°C in medium M199 supplemented with 10% heat inactivated fetal bovine serum (FBS, HiMedia Laboratories, Mumbai, India), penicillin 100 (IU/ml), streptomycin (100 μg/ml). Log phase promastigotes were sub-cultured every 72–96 h, the inoculum being 2 × 10^6 cells/ml (Afrin et al., [2002]).
Nitrostyrine series were screened for their antileishmanial activity against L. donovani promastigotes in vitro. Promastigotes of L. donovani (2 × 10^6 cells/mL) in M199 medium were incubated at 22°C for 72 h with each compound at a concentration of 100 μM. Amphotericin B (AmB) served as reference drug, 0.2% DMSO was used as solvent control. Parasites with media alone were taken as control. Parasite viability was determined microscopically after 72 h (Islamuddin et al., [2014b]).

In data set [6] the test system is Aspergillus niger ATCC 16404. The experiment in a line: Broth microdilution antifungal susceptibility (MIC/MFC). The data set is classed as cell-based. The note with it: for MIC / MFC: Aspergillus niger; for MIC: ATCC16404, 48 h, read-out: MIC, An ATCC 16404; for MFC: ATCC16404, ≥99.9% reduction of original inoculum, read-out: MFC, An ATCC 16404. A digest of the protocol: as §1

Data set [7] has as its system Candida glabrata ATCC 90030. The description is as above. The data set is classed as cell-based. The note with it: Nakaseomyces glabratus; for MFC: ATCC90030, ≥99.9% reduction of original inoculum, read-out: MFC, Cg ATCC 90030; for MIC: ATCC90030, 48 h, broth microdilution, 35°C, 48 h, read-out: MIC, Cg ATCC 90030. In short, it runs like this:
as §1

Data set [8] relates to Aspergillus fumigatus ATCC 16424. The description is as above. The data set is classed as cell-based. The note with it: for MIC / MFC: Aspergillus fumigatus; for MIC: ATCC16424, 48 h, read-out: MIC, Af ATCC 16424; for MFC: ATCC16424, ≥99.9% reduction of original inoculum, read-out: MFC, Af ATCC 16424. In short, it runs like this: as §1
Data set [9] concerns Candida albicans ATCC 90028. The data set is described as above. The data set is classed as cell-based. Conditions: Candida albicans; for MFC: ATCC90028, ≥99.9% reduction of original inoculum, read-out: MFC, Ca ATCC 90028; for MIC: ATCC90028, 48 h, broth microdilution, 35°C, 48 h, read-out: MIC, Ca ATCC 90028. A digest of the protocol:
as §1

In data set [10] the test system is L. donovani promastigotes. Description: Dose-dependent anti-promastigote activity, IC50 and IC90. The data set is classed as cell-based, Leishmania donovani. Here is the method:
as §2
AmB was used as a standard antileishmanial drug control. The cell viability was evaluated by microscopically and the mean percentage viability was calculated as follows: Mean cell number of treated parasites / Mean cell number of untreated parasites × 100. The 50 and 90% inhibitory concentration (IC50 and IC90) i.e., the concentration of drugs that decreased the cell growth by 50 and 90% respectively was determined by graphical extrapolation after plotting the graph of % viability vs. concentration of drug (Islamuddin et al., [2014b]).
In vitro antileishmanial activity was expressed as IC50 by linear regression analysis. Values are mean ± SE of samples in triplicate from at least three independent experiments. Statistical analysis was performed using ANOVA followed by Dunnett's test. ^*P < 0.05, ^**P < 0.01 and ^***P < 0.001 compared with the untreated control group were considered significant.

Setting [11] is: broth microdilution, 35°C, 24 h.
Where [12] appears, read: broth microdilution, 35°C, 48 h.

The term MIC denotes the least concentration at which growth counts as inhibited. Broadly, the MBC is the smallest concentration meeting the test's criterion for killing. By MFC is commonly meant the smallest concentration meeting the test's criterion for killing the fungus. What is called melting point is the temperature of the solid-liquid transition. For orientation: IC50 means the concentration needed to halve the response being measured. Consider `C/C(=C\c1cccc(O)c1)[N+](=O)[O-]` [Compound 20, 3-((E)-2-nitroprop-1-enyl) phenol], for which the melting point fell in the range of 96 to 98 °C. For the same compound, in [1] (setting [11]), the MIC lay in the range of 2 to 16 mg/L (≈ 11.2 to 89.3 µM) and the “MIC, Se ATCC 14990” value came to 2 mg/L (≈ 11.2 µM). Moreover, the MBC in data set [1] worked out at 2 mg/L (≈ 11.2 µM). Further, in [2] (setting [11]), the MIC was 2 to 32 mg/L (≈ 11.2 to 179 µM) and the “MIC, Sa ATCC 29213” value was found to be 2 mg/L (≈ 11.2 µM). The MBC in [2] was determined as 4 mg/L (≈ 22.3 µM). Further, in data set [3] (setting [11]), the MIC fell in the range of 16 to 32 mg/L (≈ 89.3 to 179 µM) and the “MIC, Ec ATCC 25922” value stood at 16 mg/L (≈ 89.3 µM). Also, in data set [3], the MBC was 16 mg/L (≈ 89.3 µM). In data set [4] (setting [11]), the MIC fell in the range of 16 to 32 mg/L (≈ 89.3 to 179 µM) and the “MIC, Pa ATCC 27853” value was found to be 16 mg/L (≈ 89.3 µM). Further, the minimum bactericidal concentration (MBC) in data set [4] was found to be 32 mg/L (≈ 179 µM). Also, the “Parasite viability after treatment” value in data set [5] (100 μM, 72 h, phase contrast microscope) is on record as “All the parasites were found to be dead”. Besides, in data set [6] (setting [12]), the MIC fell in the range of 2 to 4 mg/L (≈ 11.2 to 22.3 µM) and the “MIC, An ATCC 16404” value was 4 mg/L (≈ 22.3 µM). In addition, the MFC in data set [6] was 4 mg/L (≈ 22.3 µM). Moreover, the minimum fungicidal concentration (MFC) in data set [7] was found to be 8 mg/L (≈ 44.6 µM). Also, in data set [8] (setting [12]), the MIC is 4 to 8 mg/L (≈ 22.3 to 44.6 µM) and the “MIC, Af ATCC 16424” value was 8 mg/L (≈ 44.6 µM). In addition, in data set [8], the MFC is 8 mg/L (≈ 44.6 µM). For the same compound, the MFC in [9] was 16 mg/L (≈ 89.3 µM). Also, the “Anti-leishmanial activity, in words (compounds with IC50 determined)” value in data set [10] (L. donovani promastigotes) was “moderately active”. In addition, the IC50 in [10] (Leishmania donovani, 72 h, 22°C, values given in μM, read-out: IC50 against promastigotes) was 63.2 ± 2.06 µM.

The compound `CC/C(=C(/C)c1cccc(O)c1)[N+](=O)[O-]` [Compound 26, 3-((E)-3-nitropent-2-en-2-yl)phenol] gave a melting point of 138 to 140 °C. Moreover, the MIC in [1] (setting [11]) was 8 mg/L (≈ 38.6 µM). Further, the MBC in data set [1] turned out to be 8 mg/L (≈ 38.6 µM). For the same compound, in data set [2] (setting [11]), the MIC was 8 mg/L (≈ 38.6 µM). Also, the MBC in data set [2] was determined as 16 mg/L (≈ 77.2 µM). For the same compound, in [3] (setting [11]), the MIC was over 64 mg/L. Further, the MBC in data set [3] is over 64 mg/L. Moreover, in data set [4] (setting [11]), the MIC is over 64 mg/L. Further, the minimal bactericidal concentration (MBC) in [4] was over 64 mg/L. Moreover, the “Anti-leishmanial activity, in words (SAR discussion)” value in data set [5] was “loss of activity”. For the same compound, in data set [6] (setting [12]), the minimum inhibitory concentration (MIC) came to 64 mg/L (≈ 309 µM). In [6], the MFC is over 64 mg/L. Besides, in data set [7], the MIC was over 64 mg/L and the minimum fungicidal concentration (MFC) is over 64 mg/L. The minimum inhibitory concentration (MIC) in [8] (setting [12]) was over 64 mg/L. In addition, in data set [8], the MFC was over 64 mg/L. Besides, in data set [9], the minimal inhibitory concentration (MIC) is over 64 mg/L and the MFC was over 64 mg/L.

Take `CCOc1cccc(/C=C/[N+](=O)[O-])c1O` [Compound 27, 2-ethoxy-6-((E)-2-nitrovinyl) phenol]: the melting point fell in the range of 128 to 130 °C. In addition, the MIC in data set [1] (setting [11]) is 16 mg/L (≈ 76.5 µM). The minimum bactericidal concentration (MBC) in [1] was 16 mg/L (≈ 76.5 µM). Moreover, the MIC in data set [2] (setting [11]) came out at 32 mg/L (≈ 153 µM). The MBC in data set [2] is 32 mg/L (≈ 153 µM). Further, the MIC in data set [3] (setting [11]) is over 64 mg/L. The MBC in [3] was over 64 mg/L. Also, in data set [4] (setting [11]), the MIC is over 64 mg/L. Moreover, the MBC in [4] is over 64 mg/L. In data set [5], the “Anti-leishmanial activity, in words (SAR discussion)” value was “inactive”. In addition, the minimal inhibitory concentration (MIC) in [6] (setting [12]) stood at 8 mg/L (≈ 38.2 µM). In data set [6], the MFC amounted to 8 mg/L (≈ 38.2 µM). Further, in data set [7], the MIC worked out at 16 mg/L (≈ 76.5 µM) and the MFC was 16 mg/L (≈ 76.5 µM). For the same compound, the MIC in data set [8] (setting [12]) came to 16 mg/L (≈ 76.5 µM). The minimum fungicidal concentration (MFC) in [8] amounted to 16 mg/L (≈ 76.5 µM). In addition, in [9], the minimum inhibitory concentration (MIC) was found to be 32 mg/L (≈ 153 µM) and the MFC amounted to 32 mg/L (≈ 153 µM).
